Reference: patent US5674432A, “Photochromic naphthopyran compounds” (Transitions Optical, Inc., priority 1995, dated 1997)

Experiments:
[1] = photochromic response on an optical bench (sensitivity, saturation optical density, bleach rate) of imbibed test squares; type: physicochemical; conditions: for OD @ SATURATION: UV exposure continued for 20 minutes; for OD @ SATURATION / Δ OD/Min SENSITIVITY: 75° F. (23.9° C.); for Δ OD/Min SENSITIVITY: first five (5) seconds of UV exposure, expressed per minute; for BLEACH RATE T1/2: time for absorbance of activated form to reach one half the highest absorbance at room temperature (75° F., 23.9° C.) after removal of activating light
Method: Testing was done with selected photochromic naphthopyrans imbibed into test square polymerizates by a thermal transfer process. The test square polymerizates were prepared from a homopolymer of diethylene glycol bis(allyl carbonate) and measured 1/8 inch (0.3 centimeters)×2 inches (5.1 centimeters)×2 inches (5.1 centimeters). The test squares were imbibed by the following procedure. Each naphthopyran was dissolved .into toluene to form a 4 weight percent solution of the compound. A piece of No.4 Whatman filter paper was saturated with the naphthopyran toluene solution and allowed to air dry. The dried filter paper was placed on one side of the test square. A piece of untreated filter paper was placed on the other side of the polymeric test square and the resulting sandwich was placed between two flat aluminum metal plates. […] After cooling, each test square was washed with acetone.
The photochromic test squares of Part B were tested for photochromic response rates on an optical bench.
(§1) The optical bench comprises a 150 watt Xenon arc lamp, a tungsten lamp, power supplies for both lamps, condensing lenses as needed to maintain collimated light beams from both lamps, a remote controlled shutter, a copper sulfate bath acting as a heat sink for the arc lamp, a Schott WG-320 nm cut-off filter which removes short wavelength radiation, neutral density filter(s), a sample holder in which the sample to be tested is inserted, a photopic filter, light detector, and radiometer assembly, a strip chart recorder, and a means for maintaining the alignment of the aforestated components during testing.
Change in optical density (ΔOD) of a sample was determined by inserting a photochromic test sample in the bleached state into the sample holder, adjusting the transmittance scale to 100%, opening the shutter from the Xenon lamp to provide ultraviolet radiation to change the sample from the bleached state to an activated (darkened) state, measuring the transmittance through the sample. The transmittance was measured by directing a beam of light from the tungsten lamp at a small angle normal to the surface of the sample, through the sample, and to a photopic filter, light detector and radiometer assembly. The photopic filter passes wavelengths such that the detector mimics the response of the human eye and produces output signals that are processed by the radiometer. The change in optical density was calculated according to the formula ΔOD=log(100/% Ta) where % Ta is the percent transmittance in the activated state and the logarithm is to the base 10.
(§2) The ΔOD/Min, which represents the sensitivity of the photochromic compound's response to UV light, was measured over the first five (5) seconds of UV exposure, then expressed on a per minute basis. The saturation optical density (OD) was taken under identical conditions as the ΔOD/Min, except UV exposure was continued for 20 minutes. The lambda max (VIS) reported in Table 2 is the wavelength in the visible spectrum at which the maximum absorption of the activated (colored) form of the photochromic compound in a homopolymer of diethylene glycol bis(allyl carbonate) occurs.

[2] = cited from earlier work
[3] = lambda max (UV) in diethylene glycol dimethyl ether solution by UV spectrophotometer; type: physicochemical; parameters: unit not given here; conditions: approximately 0.5 milligram per milliliter, wavelength in the ultraviolet range closest to the visible spectrum
Method: The compounds of the Examples and the Comparative Examples were dissolved in diethylene glycol dimethyl ether. The concentrations of the resulting solutions were approximately 0.5 milligram per milliliter. Each solution was tested in a UV spectrophotometer to determine the lambda max (U/V). The lambda max (UV) reported in Table 1 for each of the Examples is the wavelength in the ultraviolet range closest to the visible spectrum.

[4] = lambda max (VIS) of the activated (colored) form in a homopolymer of diethylene glycol bis(allyl carbonate); type: physicochemical
Method: Testing was done with selected photochromic naphthopyrans imbibed into test square polymerizates by a thermal transfer process. The test square polymerizates were prepared from a homopolymer of diethylene glycol bis(allyl carbonate) and measured 1/8 inch (0.3 centimeters)×2 inches (5.1 centimeters)×2 inches (5.1 centimeters). The test squares were imbibed by the following procedure. Each naphthopyran was dissolved .into toluene to form a 4 weight percent solution of the compound. A piece of No.4 Whatman filter paper was saturated with the naphthopyran toluene solution and allowed to air dry. The dried filter paper was placed on one side of the test square. A piece of untreated filter paper was placed on the other side of the polymeric test square and the resulting sandwich was placed between two flat aluminum metal plates. The entire assembly was then placed in an oven kept at 135° to 155° C. for a time sufficient to thermally transfer the naphthopyran into the polymeric test square. After cooling, each test square was washed with acetone.
The photochromic test squares of Part B were tested for photochromic response rates on an optical bench. Prior to testing on the optical bench, the photochromic test squares were exposed to 365 nanometer ultraviolet light for about 15 minutes to activate the photochromic compounds and then placed into a 76° C. oven for about 15 minutes to bleach or inactivate the photochromic compounds. The test squares were then cooled to room temperature, exposed to fluorescent room lighting for at least 2 hours and then kept covered for at least 2 hours prior to testing on an optical bench maintained at 75° F. (23.9° C.).
as §1
as §2, with “occurs. The bleach rate (T 1/2) is the time interval in seconds for the absorbance of the activated form of the naphthopyran in the test squares to reach one half the highest absorbance at room temperature (75° F., 23.9° C.) after removal of the source of activating light.” for “occurs.”

[5] = vs 3,3-diphenyl-3H-naphtho[2,1-b]pyran and 5-, 7- or 9-methoxy compounds, U.S. Pat. No. 5,238,981

| Structure (SMILES) | OD @ SATURATION [1] | Δ OD/Min SENSITIVITY [1] | BLEACH RATE T1/2 [1] [min] | Lambda max (UV) [3] | LAMBDA MAX (VIS) [4] [nm] | also measured |
| --- | --- | --- | --- | --- | --- | --- |
| C1=CC(c2ccccc2)(c2ccccc2)Oc2ccc3ccccc3c21 [Comparative Example 1, 3,3-diphenyl-3H-naphtho[2,1-b]pyran, reference compound] | 0.36 | 0.87 Δ OD/Min | 0.75 | 359 | 430 | optical density at saturation ([2]; at room temperature and above): too low for use in optical applications; optical density change on exposure to ultraviolet light ([2]; at room temperature and above): changes too slowly; sensitivity on exposure to ultraviolet light ([2]; at room temperature and above): low |
| COc1ccc2c3c(ccc2c1)OC(c1ccccc1)(c1ccccc1)C=C3 [Comparative Example 2, 3,3-diphenyl-8-methoxy-3H-naphtho[2,1-b]pyran, reference compound] | 0.73 | 1.25 Δ OD/Min | 1.45 | 376 | 473 | lambda max (UV), in words ([2]; near visible threshold range about 390 to 410 nanometers, U.S. Pat. No. 5,238,981): shifted towards the near visible threshold range; optical density at saturation, comparison in words [2, 5]: enhanced sensitivity and optical density at saturation; sensitivity, comparison in words [2, 5]: enhanced sensitivity |
| Cc1cccc(C2(c3ccccc3)C=Cc3c(ccc4c5c(ccc34)OC(C)C5)O2)c1 (stereo not drawn) [Example 1, 7-(phenyl)-7-(3-methylphenyl)-7H-2-methyl-2,3-dihydrofuro[3',2',:5,6]naphtho[2,1-b]pyran] | – | – | – | 394 | – | – |
| CC1Cc2c(ccc3c4c(ccc23)OC(c2ccccc2)(c2ccccc2)C=C4)O1 (stereo not drawn) [Example 2, 7,7-diphenyl-7H-2-methyl-2,3-dihydrofuro[3',2',:5,6]naphtho[2,1-b]pyran] | 0.66 | 1.35 Δ OD/Min | 1.77 | 394 | 488 | – |
| CC1Cc2c(ccc3c4c(ccc23)OC(c2ccccc2)(c2cccc(C(F)(F)F)c2)C=C4)O1 (stereo not drawn) [Example 3, 7-(phenyl)-7-(3-trifluoromethylphenyl)-7H-2-methyl-2,3-dihydrofuro[3',2',:5,6]naphtho[2,1-b]pyran] | 0.74 | 1.38 Δ OD/Min | 2.18 | 396 | 494 | – |
| CC1Cc2c(ccc3c4c(ccc23)OC(c2ccccc2)(c2cccc(F)c2)C=C4)O1 (stereo not drawn) [Example 4, 7-(phenyl)-7-(3-fluorophenyl)-7H-2-methyl-2,3-dihydrofuro[3',2',:5,6]naphtho[2,1-b]pyran] | 0.76 | 1.44 Δ OD/Min | 1.82 | 394 | 489 | – |
| COc1cccc(C2(c3ccccc3)C=Cc3c(ccc4c5c(ccc34)OC(C)C5)O2)c1 (stereo not drawn) [Example 5, 7-(phenyl)-7-(3-methoxyphenyl)-7H-2-methyl-2,3-dihydrofuro[3',2',:5,6]naphtho[2,1-b]pyran] | 0.74 | 1.43 Δ OD/Min | 2.75 | 395 | 495 | – |
| COc1ccc(C2(c3ccccc3F)C=Cc3c(ccc4c5c(ccc34)OC(C)C5)O2)cc1 (stereo not drawn) [Example 6, 7-(2-fluorophenyl)-7-(4-methoxyphenyl)-7H-2-methyl-2,3-dihydrofuro[3',2',:5,6]naphtho[2,1-b]pyran] | – | – | – | 393 | – | – |
| Cc1coc2ccc3c4c(ccc3c12)OC(c1ccccc1)(c1ccccc1)C=C4 [Example 7, 7,7-diphenyl-7H-3-methylfuro[3',2',:5,6]naphtho[2,1-b]pyran] | – | – | – | 372 | – | – |
| C1=CC(c2ccccc2)(c2ccccc2)Oc2ccc3c4c(ccc3c21)OCCC4 [Example 8, 9,9-diphenyl-3H,9H-1,2-dihydronaphtho[2,1-b:6,5-b']dipyran] | – | – | – | 382 | – | – |
| COc1ccc(C2(c3ccc(OC)cc3OC)C=Cc3c(ccc4c3ccc3oc(=O)cc(C)c34)O2)cc1 (stereo not drawn) [Example 9, 9-(2,4-dimethoxyphenyl)-9-(4'-methoxyphenyl)-1-methyl-3H,9H-naphtho[2,1-b:6,5-b']dipyran-3-one] | – | – | – | 396 | – | – |
| COc1ccc(C2(c3ccc(OC)cc3OC)C=Cc3c(ccc4c3ccc3oc(C)cc(=O)c34)O2)cc1 (stereo not drawn) [Example 10, 9-(2,4-dimethoxyphenyl)-9-(4'-methoxyphenyl)-3-methyl-1H,9H-naphtho[2,1-b:6,5-b']dipyran-1-one] | – | – | – | 384 | – | – |
